{
  "source": "patent US20150140089A1",
  "about": "(MetronomX, priority 2012, published 2015)",
  "key": {"[1]": {"conditions": "2% w/v SDS in water"}, "[2]": {"assay": "In vitro release (dissolution), USP apparatus II, 5% SDS in 0.1N HCl", "type": "physicochemical", "conditions": "0.1N HCl with 5% SDS; in 24 hr", "method": "(§1) At specified time intervals (0.5, 1, 2, 4, 8, 10, and 24 h), 2 ml of sample was collected from each basket and replaced with the same volume of buffer."}, "[3]": {"conditions": "blood level of active compound; cited from earlier work"}, "[4]": {"assay": "In vitro release (dissolution) using 2% w/v SDS in deionized water", "type": "physicochemical", "method": "as §1\nDissolution of each formulation was performed in duplicate."}},
  "note": "Values joined by “and” are separate entries in the source; they are usually repeats but may differ in a detail not shown here. Equal entries are not always repeated. Where two headings read alike, the source gives them in different places.",
  "data": [
    {"smiles": "CC1CS(=O)(=O)CCN1/N=C/c1ccc([N+](=O)[O-])o1", "note": "(stereo not drawn) [Nifurtimox, 3-methyl-4-(5′-nitrofurfurylidene-amino)-tetrahydro-4H-1,4-thiazine-1,1-dioxide]", "values": [
      {"measurement": "Estimated Amount of Nifurtimox", "setting": "[1]; 25 °C, 0 hr", "result": 344.22, "unit": "µg/mL"},
      {"measurement": "Estimated Amount of Nifurtimox", "setting": "[1]; 25 °C, 4 hr", "result": 339.96, "unit": "µg/mL"},
      {"measurement": "Estimated Amount of Nifurtimox", "setting": "[1]; 25 °C, 8 hr", "result": 345.38, "unit": "µg/mL"},
      {"measurement": "Estimated Amount of Nifurtimox", "setting": "[1]; 25 °C, 12 hr", "result": 346.21, "unit": "µg/mL"},
      {"measurement": "Estimated Amount of Nifurtimox", "setting": "[1]; 25 °C, 16 hr", "result": 346.94, "unit": "µg/mL"},
      {"measurement": "Estimated Amount of Nifurtimox", "setting": "[1]; 25 °C, 20 hr", "result": 344.92, "unit": "µg/mL"},
      {"measurement": "Estimated Amount of Nifurtimox", "setting": "[1]; 25 °C, 24 hr", "result": 341.80, "unit": "µg/mL"},
      {"measurement": "Estimated Amount of Nifurtimox", "setting": "[1]; 37 °C, 1 hr", "result": 338.78, "unit": "µg/mL"},
      {"measurement": "Estimated Amount of Nifurtimox", "setting": "[1]; 37 °C, 2 hr", "result": 339.74, "unit": "µg/mL"},
      {"measurement": "Estimated Amount of Nifurtimox", "setting": "[1]; 37 °C, 3 hr", "result": 338.78, "unit": "µg/mL"},
      {"measurement": "Estimated Amount of Nifurtimox", "setting": "[1]; 37 °C, 24 hr", "result": "343.76 µg/mL and 339.56 µg/mL"},
      {"measurement": "Nifurtimox degradation in dissolution samples", "setting": "[2]", "result": "about 25%"},
      {"measurement": "half-life", "setting": "[3]", "result": "2.95 ± 1.19", "unit": "h"},
      {"measurement": "time to peak", "setting": "[3]", "result": "1 to 2", "unit": "h"},
      {"measurement": "instability of Nifurtimox during dissolution (in words)", "setting": "[4]", "result": "no significant instability"}
    ]}
  ]
}
